Measurements as given in ChEMBL document CHEMBL5465560, “Selectivity Literature for EUbOPEN Chemogenomic Library” (2024).
Values belong to the molecule of their own block, whether it stands above or below them.

Columns and labels:
[1] = tested on: Fibroblast growth factor receptor 3 (Homo sapiens), P22607 [K650M]; assay: (§1) Selectivity interaction (LanthaScreen Eu Kinase Binding Assay) EUB0001632a FGFR3; conditions: at 10 µM
[2] = tested on: Fibroblast growth factor receptor 3 (Homo sapiens), P22607 [G697C]; assay: as §1; conditions: at 10 µM
[3] = target: Neuronal acetylcholine receptor subunit beta-2 (Homo sapiens) (UniProt P17787); assay: Selectivity interaction (Eurofins CEREP Diversity Profile (receptors and ion channels)) EUB0000279b CHRNB2; conditions: at 10 µM
[4] = target: Ephrin type-A receptor 2 (Homo sapiens) (UniProt P29317); assay: Selectivity interaction (Kinase panel (literature)) EUB0001199aCl EPHA2; conditions: at 1 µM
[5] = target: Tyrosine-protein kinase SYK (Homo sapiens, UniProt P43405); assay: Selectivity interaction (ActivX KiNativ screen (kinase selectivity in THP-1 cell lysates)) EUB0000639a SYK; format: subcellular; conditions: lysate, at 0.2 µM
[6] = target: Vascular endothelial growth factor receptor 3 (Homo sapiens, UniProt P35916); assay: Selectivity interaction (Kinase panel (Invitrogen)) EUB0000639a FLT4; conditions: at 200 nM
[7] = target: Serine/threonine-protein kinase 10 (Homo sapiens) (UniProt O94804); assay: Selectivity interaction (KinomeScan (DiscoverX)) EUB0001079a STK10; conditions: at 1 µM
[8] = target: T1, Serine/threonine-protein kinase TAO2 (Homo sapiens) (UniProt Q9UL54); assay: Selectivity interaction (KinomeScan (DiscoverX)) EUB0000092b TAOK2; conditions: at 10 µM
T1 sequence (whole entry): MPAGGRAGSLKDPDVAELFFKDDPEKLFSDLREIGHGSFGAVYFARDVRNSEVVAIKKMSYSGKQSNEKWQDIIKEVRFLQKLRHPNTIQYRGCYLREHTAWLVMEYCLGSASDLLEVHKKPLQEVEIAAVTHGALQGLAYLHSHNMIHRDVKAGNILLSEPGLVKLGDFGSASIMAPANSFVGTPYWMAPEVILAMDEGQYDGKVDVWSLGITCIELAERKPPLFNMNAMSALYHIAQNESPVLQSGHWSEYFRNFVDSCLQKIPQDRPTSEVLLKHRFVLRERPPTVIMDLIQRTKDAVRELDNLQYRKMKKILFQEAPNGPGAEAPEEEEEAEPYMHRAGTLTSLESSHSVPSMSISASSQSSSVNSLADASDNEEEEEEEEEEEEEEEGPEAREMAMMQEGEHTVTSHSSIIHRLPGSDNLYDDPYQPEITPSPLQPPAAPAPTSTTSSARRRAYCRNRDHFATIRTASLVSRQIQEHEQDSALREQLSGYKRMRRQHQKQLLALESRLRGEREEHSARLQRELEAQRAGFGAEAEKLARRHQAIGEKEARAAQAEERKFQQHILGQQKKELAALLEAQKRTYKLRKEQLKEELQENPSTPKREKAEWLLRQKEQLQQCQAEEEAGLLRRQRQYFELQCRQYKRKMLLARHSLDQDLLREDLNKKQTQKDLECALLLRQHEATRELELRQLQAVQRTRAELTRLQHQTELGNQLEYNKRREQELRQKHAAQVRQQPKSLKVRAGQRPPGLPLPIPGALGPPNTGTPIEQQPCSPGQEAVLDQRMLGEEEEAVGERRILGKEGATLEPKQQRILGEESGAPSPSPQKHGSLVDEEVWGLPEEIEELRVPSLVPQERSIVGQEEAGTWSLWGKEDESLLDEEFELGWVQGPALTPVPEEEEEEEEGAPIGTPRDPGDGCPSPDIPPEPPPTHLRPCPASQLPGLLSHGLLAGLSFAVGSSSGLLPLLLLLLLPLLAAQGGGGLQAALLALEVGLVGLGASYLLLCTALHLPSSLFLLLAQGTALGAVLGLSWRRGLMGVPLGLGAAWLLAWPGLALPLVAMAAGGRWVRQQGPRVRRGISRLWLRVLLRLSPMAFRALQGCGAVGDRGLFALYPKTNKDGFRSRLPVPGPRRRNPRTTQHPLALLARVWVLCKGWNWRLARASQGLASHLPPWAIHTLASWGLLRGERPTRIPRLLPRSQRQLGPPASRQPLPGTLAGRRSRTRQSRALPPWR

[9] = target: T2, cGMP-dependent protein kinase 2 (Homo sapiens) (UniProt Q13237); assay: Selectivity interaction (KinomeScan (DiscoverX)) EUB0001619a PRKG2; conditions: at 1 µM
T2 sequence (whole entry): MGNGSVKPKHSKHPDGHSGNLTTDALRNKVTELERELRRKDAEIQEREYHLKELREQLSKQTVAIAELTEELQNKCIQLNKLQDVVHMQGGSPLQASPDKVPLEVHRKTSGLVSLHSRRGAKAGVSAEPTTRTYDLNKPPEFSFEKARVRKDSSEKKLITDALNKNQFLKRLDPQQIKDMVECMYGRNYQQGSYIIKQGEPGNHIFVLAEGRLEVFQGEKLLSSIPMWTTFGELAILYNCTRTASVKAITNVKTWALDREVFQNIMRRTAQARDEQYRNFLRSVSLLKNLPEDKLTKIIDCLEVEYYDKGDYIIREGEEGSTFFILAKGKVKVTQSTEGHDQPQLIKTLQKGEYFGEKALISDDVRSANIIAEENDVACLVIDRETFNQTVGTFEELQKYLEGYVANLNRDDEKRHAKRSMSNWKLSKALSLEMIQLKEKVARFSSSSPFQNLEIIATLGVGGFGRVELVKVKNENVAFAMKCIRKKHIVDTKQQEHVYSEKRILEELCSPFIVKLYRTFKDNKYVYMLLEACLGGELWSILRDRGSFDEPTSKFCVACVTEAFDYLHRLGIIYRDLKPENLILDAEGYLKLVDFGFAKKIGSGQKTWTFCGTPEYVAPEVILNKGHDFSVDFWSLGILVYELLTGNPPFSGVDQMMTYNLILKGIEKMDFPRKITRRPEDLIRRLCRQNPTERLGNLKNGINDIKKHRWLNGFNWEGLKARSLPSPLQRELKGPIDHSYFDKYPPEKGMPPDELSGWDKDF

Sequence of Serine/threonine-protein kinase 10 (Homo sapiens) (O94804 whole entry, looked up): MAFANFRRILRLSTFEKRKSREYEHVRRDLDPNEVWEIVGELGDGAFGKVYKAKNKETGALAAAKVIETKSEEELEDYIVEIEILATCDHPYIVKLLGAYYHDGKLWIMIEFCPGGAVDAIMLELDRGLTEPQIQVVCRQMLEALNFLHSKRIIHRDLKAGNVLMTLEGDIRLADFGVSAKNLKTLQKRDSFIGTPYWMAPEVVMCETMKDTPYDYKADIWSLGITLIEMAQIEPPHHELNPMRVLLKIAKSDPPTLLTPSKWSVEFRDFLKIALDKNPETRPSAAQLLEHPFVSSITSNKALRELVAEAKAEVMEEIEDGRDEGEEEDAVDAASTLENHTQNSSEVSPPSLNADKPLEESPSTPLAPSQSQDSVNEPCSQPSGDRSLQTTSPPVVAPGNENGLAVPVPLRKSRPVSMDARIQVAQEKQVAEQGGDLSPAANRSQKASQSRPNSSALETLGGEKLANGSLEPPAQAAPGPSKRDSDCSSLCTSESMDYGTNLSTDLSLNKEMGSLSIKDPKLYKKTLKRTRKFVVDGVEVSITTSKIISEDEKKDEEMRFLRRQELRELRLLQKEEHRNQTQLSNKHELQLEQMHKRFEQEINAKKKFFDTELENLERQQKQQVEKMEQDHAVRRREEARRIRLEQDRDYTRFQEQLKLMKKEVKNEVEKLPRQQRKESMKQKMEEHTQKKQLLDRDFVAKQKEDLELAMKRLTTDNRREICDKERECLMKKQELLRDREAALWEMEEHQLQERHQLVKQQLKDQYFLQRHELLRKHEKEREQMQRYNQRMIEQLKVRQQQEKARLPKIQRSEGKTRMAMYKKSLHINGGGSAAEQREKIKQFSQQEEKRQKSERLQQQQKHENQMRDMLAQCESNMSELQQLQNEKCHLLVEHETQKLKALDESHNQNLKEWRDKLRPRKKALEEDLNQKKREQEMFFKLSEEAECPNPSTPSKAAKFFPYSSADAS
Sequence of Ephrin type-A receptor 2 (Homo sapiens) (P29317 whole entry): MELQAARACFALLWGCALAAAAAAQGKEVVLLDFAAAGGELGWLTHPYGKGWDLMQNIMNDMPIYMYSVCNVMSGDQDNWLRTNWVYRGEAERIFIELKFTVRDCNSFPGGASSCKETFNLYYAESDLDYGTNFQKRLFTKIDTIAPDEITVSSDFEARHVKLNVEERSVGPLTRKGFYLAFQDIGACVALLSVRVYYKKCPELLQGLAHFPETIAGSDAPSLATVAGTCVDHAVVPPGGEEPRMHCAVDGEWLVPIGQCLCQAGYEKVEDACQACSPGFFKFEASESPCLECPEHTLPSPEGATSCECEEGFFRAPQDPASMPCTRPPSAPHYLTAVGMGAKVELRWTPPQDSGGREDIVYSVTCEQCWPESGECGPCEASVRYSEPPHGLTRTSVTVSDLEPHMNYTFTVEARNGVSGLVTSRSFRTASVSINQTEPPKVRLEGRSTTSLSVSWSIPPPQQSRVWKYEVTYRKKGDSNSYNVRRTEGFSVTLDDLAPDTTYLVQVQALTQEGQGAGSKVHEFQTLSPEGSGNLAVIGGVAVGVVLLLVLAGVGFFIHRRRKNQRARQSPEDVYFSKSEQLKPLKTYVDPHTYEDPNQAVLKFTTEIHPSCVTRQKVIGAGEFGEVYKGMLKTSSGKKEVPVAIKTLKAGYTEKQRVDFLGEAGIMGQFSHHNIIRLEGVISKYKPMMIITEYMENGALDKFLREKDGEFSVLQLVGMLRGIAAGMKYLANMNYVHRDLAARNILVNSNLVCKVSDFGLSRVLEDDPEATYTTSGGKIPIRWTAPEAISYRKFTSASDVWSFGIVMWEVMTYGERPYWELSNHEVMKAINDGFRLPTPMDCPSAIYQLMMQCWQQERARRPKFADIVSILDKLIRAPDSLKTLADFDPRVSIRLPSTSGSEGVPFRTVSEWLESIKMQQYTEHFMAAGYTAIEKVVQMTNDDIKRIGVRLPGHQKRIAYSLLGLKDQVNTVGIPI
Sequence of Fibroblast growth factor receptor 3 (Homo sapiens), P22607 [K650M] (P22607 whole entry K650M): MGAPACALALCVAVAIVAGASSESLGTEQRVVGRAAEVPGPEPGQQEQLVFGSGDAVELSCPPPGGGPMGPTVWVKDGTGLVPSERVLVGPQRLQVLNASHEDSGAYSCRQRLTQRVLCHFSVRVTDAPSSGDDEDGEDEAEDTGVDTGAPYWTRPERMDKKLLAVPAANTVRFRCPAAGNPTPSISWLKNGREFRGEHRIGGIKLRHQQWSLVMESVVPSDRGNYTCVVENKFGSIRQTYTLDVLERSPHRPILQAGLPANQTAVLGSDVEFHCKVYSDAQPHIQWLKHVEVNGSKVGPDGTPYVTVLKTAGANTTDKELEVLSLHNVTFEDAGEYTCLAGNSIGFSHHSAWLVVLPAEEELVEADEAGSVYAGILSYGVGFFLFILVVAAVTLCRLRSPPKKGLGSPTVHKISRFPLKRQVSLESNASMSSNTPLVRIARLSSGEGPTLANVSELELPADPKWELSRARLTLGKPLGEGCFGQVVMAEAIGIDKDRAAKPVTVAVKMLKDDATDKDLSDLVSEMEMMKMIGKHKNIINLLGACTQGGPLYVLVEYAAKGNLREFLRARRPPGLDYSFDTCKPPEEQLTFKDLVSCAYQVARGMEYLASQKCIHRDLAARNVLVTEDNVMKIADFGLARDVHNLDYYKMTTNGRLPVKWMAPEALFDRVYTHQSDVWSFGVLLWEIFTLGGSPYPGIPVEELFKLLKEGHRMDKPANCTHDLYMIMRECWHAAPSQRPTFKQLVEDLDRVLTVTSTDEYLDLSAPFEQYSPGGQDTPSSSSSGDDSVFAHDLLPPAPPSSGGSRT
Sequence of Vascular endothelial growth factor receptor 3 (P35916 whole entry): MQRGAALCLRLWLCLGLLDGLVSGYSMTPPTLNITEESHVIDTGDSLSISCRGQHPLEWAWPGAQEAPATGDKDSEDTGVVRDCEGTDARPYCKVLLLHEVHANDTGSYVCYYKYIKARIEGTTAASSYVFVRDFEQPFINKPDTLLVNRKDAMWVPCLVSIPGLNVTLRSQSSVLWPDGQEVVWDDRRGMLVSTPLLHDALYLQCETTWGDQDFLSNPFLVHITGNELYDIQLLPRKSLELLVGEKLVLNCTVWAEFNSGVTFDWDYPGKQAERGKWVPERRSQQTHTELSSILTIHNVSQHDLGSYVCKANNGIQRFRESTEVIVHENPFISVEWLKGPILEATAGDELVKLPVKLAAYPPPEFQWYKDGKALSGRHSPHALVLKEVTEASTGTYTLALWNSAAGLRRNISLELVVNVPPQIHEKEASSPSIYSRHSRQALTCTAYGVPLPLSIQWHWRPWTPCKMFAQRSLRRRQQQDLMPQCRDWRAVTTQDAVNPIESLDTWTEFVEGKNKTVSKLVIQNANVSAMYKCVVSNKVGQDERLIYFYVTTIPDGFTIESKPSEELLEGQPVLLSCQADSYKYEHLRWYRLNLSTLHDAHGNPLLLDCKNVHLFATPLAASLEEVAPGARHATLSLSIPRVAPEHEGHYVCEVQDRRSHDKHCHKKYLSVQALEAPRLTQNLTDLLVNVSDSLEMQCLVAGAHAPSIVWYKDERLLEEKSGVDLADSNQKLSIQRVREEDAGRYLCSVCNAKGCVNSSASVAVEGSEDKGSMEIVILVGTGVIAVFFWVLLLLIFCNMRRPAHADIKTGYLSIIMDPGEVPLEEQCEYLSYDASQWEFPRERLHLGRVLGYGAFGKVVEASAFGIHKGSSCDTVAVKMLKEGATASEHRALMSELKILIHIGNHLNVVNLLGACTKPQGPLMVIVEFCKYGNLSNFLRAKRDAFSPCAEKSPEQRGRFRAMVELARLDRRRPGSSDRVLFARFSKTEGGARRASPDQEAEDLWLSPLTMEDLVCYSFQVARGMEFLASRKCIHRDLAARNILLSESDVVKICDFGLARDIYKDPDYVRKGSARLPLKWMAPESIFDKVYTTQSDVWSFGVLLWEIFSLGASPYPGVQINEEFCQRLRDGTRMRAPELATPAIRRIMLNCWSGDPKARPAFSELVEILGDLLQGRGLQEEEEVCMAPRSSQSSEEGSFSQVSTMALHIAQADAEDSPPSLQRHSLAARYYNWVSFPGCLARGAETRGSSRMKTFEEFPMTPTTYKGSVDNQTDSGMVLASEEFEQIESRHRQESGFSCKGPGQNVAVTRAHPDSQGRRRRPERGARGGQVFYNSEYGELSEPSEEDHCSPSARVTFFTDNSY
Sequence of Neuronal acetylcholine receptor subunit beta-2 (Homo sapiens) (P17787 whole entry): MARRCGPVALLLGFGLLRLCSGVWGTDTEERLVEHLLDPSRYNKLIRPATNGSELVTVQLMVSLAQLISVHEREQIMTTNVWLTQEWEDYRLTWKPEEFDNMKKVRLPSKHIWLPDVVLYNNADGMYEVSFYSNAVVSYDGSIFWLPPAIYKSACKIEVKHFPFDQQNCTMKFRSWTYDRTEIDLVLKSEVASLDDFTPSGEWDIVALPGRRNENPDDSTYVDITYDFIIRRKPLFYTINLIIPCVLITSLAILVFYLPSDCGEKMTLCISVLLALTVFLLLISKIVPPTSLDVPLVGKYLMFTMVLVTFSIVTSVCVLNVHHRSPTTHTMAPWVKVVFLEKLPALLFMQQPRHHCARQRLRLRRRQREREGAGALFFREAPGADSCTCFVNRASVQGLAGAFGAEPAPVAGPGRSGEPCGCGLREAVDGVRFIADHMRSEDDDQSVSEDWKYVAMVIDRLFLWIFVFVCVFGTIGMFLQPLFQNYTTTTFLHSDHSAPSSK
Sequence of Fibroblast growth factor receptor 3 (Homo sapiens), P22607 [G697C] (P22607 whole entry G697C): as the sequence (P22607 whole entry K650M) above, with M650K, G697C counted along it

Compound: CC[C@@H]1[C@H](F)C(=O)N[C@@H]1COc1nccc2cc(C(N)=O)c(OC)cc12 [ZIMLOVISERTIB]
% of inhibition [5]: 9.3%
% of inhibition [6]: 0.591%

Compound: Nc1cnc(N2CCc3cc(S(=O)(=O)Nc4c(F)cc(Cl)cc4F)cc(N4CCCC4=O)c32)nc1 [TP-020n]
% of control [7]: 100%

Compound: CCC(=O)N1CCN(c2ccc(-n3c(=O)ccc4cnc5ccc(-c6cnc7ccccc7c6)cc5c43)cc2C(F)(F)F)CC1
% of control [8]: 84%

Compound: N#Cc1cccc(-c2c[nH]c3ncnc(N4CCOCC4)c23)c1
% of control [9]: 100%

The next lines start with the values.

% of inhibition [1]: -215%
% of inhibition [2]: -105%
Compound: Cn1cc(-n2cnc3c(NCc4nc5cc(Cl)c(Cl)cc5[nH]4)nc(N4CCOCC4)nc32)cn1

% of control [3]: 105%
Compound: CC(=O)c1cc(-c2ccccc2OCC2CC2)c2ncccn12

% of inhibition [4]: 4%
Compound: CN1Cc2nccc(-c3cn(C)nc3-c3ccc(F)cc3)c2C1=O
